# Laboratory results taken from PubChem BioAssay AID1963873 (Molecular Pharmacology Branch, DTP, NCI, 2024).
# “And” between values parts separate entries of the source, which are not always exact repeats. Identical values can stand only once.
# Test system: 276233-004-R-J1-PDC KRAS spheroids with HUVEC/MSC, viability
# Assay: Anticancer human tumor 276233-004-R-J1-PDC patient-derived colon adenocarcinoma cell line growth inhibition [KRAS2]
# Conditions: for viability, T/C: stronger effect = lower value
# Summary of the method: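 KRAS-mutant tumor cells were grown as spheroids with HUVEC endothelial cells and human MSCs as stroma. Targeted agents were tested alone and with KRAS pathway inhibitors. Doses started at or near clinical Cmax, or 10 microM, descending half-log.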
# [1] = curve of first compound, second compound 0.1 µM
# [2] = curve of first compound, second compound 0.316 µM
# [3] = curve of first compound, second compound 1 µM
# [4] = curve of first compound, second compound 3.16 µM
# [5] = curve of first compound, second compound 10 µM
# [6] = second compound 0.1 µM, first compound 0.0316 µM
# [7] = second compound 0.1 µM, first compound 0.1 µM
# [8] = second compound 0.1 µM, first compound 0.316 µM
# [9] = second compound 0.1 µM, first compound 1 µM
# [10] = second compound 0.1 µM, first compound 3.16 µM
# [11] = second compound 0.1 µM, first compound 10 µM
# [12] = second compound 0.316 µM, first compound 0.0316 µM
# [13] = second compound 0.316 µM, first compound 0.1 µM
# [14] = second compound 0.316 µM, first compound 0.316 µM
# [15] = second compound 0.316 µM, first compound 1 µM
# [16] = second compound 0.316 µM, first compound 3.16 µM
# [17] = second compound 0.316 µM, first compound 10 µM
# [18] = second compound 1 µM, first compound 0.0316 µM
# [19] = second compound 1 µM, first compound 0.1 µM
# [20] = second compound 1 µM, first compound 0.316 µM
# [21] = second compound 1 µM, first compound 1 µM
# [22] = second compound 1 µM, first compound 3.16 µM
# [23] = second compound 1 µM, first compound 10 µM
# [24] = second compound 3.16 µM, first compound 0.0316 µM
# [25] = second compound 3.16 µM, first compound 0.1 µM
# [26] = second compound 3.16 µM, first compound 0.316 µM
# [27] = second compound 3.16 µM, first compound 1 µM
# [28] = second compound 3.16 µM, first compound 3.16 µM
# [29] = second compound 3.16 µM, first compound 10 µM
# [30] = second compound 10 µM, first compound 0.0316 µM
# [31] = second compound 10 µM, first compound 0.1 µM
# [32] = second compound 10 µM, first compound 0.316 µM
# [33] = second compound 10 µM, first compound 1 µM
# [34] = second compound 10 µM, first compound 3.16 µM
# [35] = second compound 10 µM, first compound 10 µM
# [36] = second compound 0.1 µM, first compound 0.01 µM
# [37] = second compound 0.316 µM, first compound 0.01 µM
# [38] = second compound 1 µM, first compound 0.01 µM
# [39] = second compound 3.16 µM, first compound 0.01 µM
# [40] = second compound 10 µM, first compound 0.01 µM
# 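Note: cells exposed to agents for seven days before viability read.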
# 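Throughout, for viability, T/C: 100% = DMSO vehicle control wells and lower values mean fewer viable cells.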
Compound,IC50 [1] [µM],IC50 [2] [µM],IC50 [3] [µM],IC50 [4] [µM],IC50 [5] [µM],"viability, T/C [6] [%]","viability, T/C [7] [%]","viability, T/C [8] [%]","viability, T/C [9] [%]","viability, T/C [10] [%]","viability, T/C [12] [%]","viability, T/C [13] [%]","viability, T/C [14] [%]","viability, T/C [15] [%]","viability, T/C [18] [%]","viability, T/C [19] [%]","viability, T/C [24] [%]","viability, T/C [25] [%]","viability, T/C [30] [%]","viability, T/C [31] [%]",further results
COc1cc2nccc(Oc3ccc(NC(=O)C4(C(=O)Nc5ccc(F)cc5)CC4)cc3)c2cc1OC + C=CC(=O)N1CCN(c2nc(=O)n(-c3c(C)ccnc3C(C)C)c3nc(-c4c(O)cccc4F)c(F)cc23)C(C)C1,> 10,> 10,> 10,> 10,> 10,93.5,109,96,84.7,101,97.4,112,83.7,91.3,89.1,91.2,85.5,79.8,82.3,74.9,"viability, T/C [11]: 104%; viability, T/C [16]: 87.4%; viability, T/C [17]: 76.3%; viability, T/C [20]: 84.9%; viability, T/C [21]: 72.1%; viability, T/C [22]: 74.5%; viability, T/C [23]: 75.1%; viability, T/C [26]: 102%; viability, T/C [27]: 76.7%; viability, T/C [28]: 72.4%; viability, T/C [29]: 114%; viability, T/C [32]: 69.1%; viability, T/C [33]: 81.8%; viability, T/C [34]: 88.5%; viability, T/C [35]: 76%"
O=C(c1cc(Cc2n[nH]c(=O)c3ccccc23)ccc1F)N1CCN(C(=O)C2CC2)CC1 + CNCc1ccccc1-c1csc(C(C)Nc2nc(C)nc3cc(OC)c(OC)cc23)c1,> 10,> 10,> 10,< 0.0316,< 0.0316,98.5,99.5,84.5,87.5,110,103,80.8,90.3,85.3,99.2,86.8,5.86,1.28,3.64,5.22,"viability, T/C [11]: 96.5%; viability, T/C [16]: 84%; viability, T/C [17]: 68.7%; viability, T/C [20]: 88.5%; viability, T/C [21]: 73.8%; viability, T/C [22]: 87.1%; viability, T/C [23]: 78.2%; viability, T/C [26]: 0.99%; viability, T/C [27]: 1.9%; viability, T/C [28]: 1.8%; viability, T/C [29]: 2.47%; viability, T/C [32]: 3.94%; viability, T/C [33]: 5.16%; viability, T/C [34]: 0.77%; viability, T/C [35]: 1.05%"
CC1(C)CCC(CN2CCN(c3ccc(C(=O)NS(=O)(=O)c4ccc(NCC5CCOCC5)c([N+](=O)[O-])c4)c(Oc4cnc5[nH]ccc5c4)c3)CC2)=C(c2ccc(Cl)cc2)C1 + COc1cc2nc(C)nc(NC(C)c3cc(N)cc(C(F)(F)F)c3)c2cc1OC1CCOC1,> 10,> 10,> 10,> 10,< 0.0316,97.5,97,73.6,95.5,68.8,104,84.8,95.9,96.3,102,87.3,79.1,120,23.9,31.8,"viability, T/C [11]: 69.7%; viability, T/C [16]: 67%; viability, T/C [17]: 72.8%; viability, T/C [20]: 89.6%; viability, T/C [21]: 87.3%; viability, T/C [22]: 70.1%; viability, T/C [23]: 60.6%; viability, T/C [26]: 81.8%; viability, T/C [27]: 103%; viability, T/C [28]: 78.3%; viability, T/C [29]: 57.8%; viability, T/C [32]: 25%; viability, T/C [33]: 41.3%; viability, T/C [34]: 38.8%; viability, T/C [35]: 54.8%"
COC(=O)c1ccc2c(C(=Nc3ccc(N(C)C(=O)CN4CCN(C)CC4)cc3)c3ccccc3)c(O)[nH]c2c1,–,–,–,–,–,–,–,–,–,–,–,–,–,–,–,–,–,–,–,–,"viability, T/C (compound 0.0316 µM): 93.3% [middle of 5 runs]; viability, T/C (compound 0.1 µM): 90.3% [middle of 5 runs]; viability, T/C (compound 0.316 µM): 81.9% [middle of 5 runs]; viability, T/C (compound 1 µM): 86.2% [middle of 5 runs]; IC50 (curve of compound): > 10 µM"
CC(=O)OC12COC1CC(O)C1(C)C(=O)C(O)C3=C(C)C(OC(=O)C(O)C(NC(=O)OC(C)(C)C)c4ccccc4)CC(O)(C(OC(=O)c4ccccc4)C21)C3(C)C (centres undefined) + CC1OCC2(CCN(c3cnc(Sc4ccnc(N)c4Cl)c(N)n3)CC2)C1N,> 3.16,> 3.16,> 3.16,< 0.01,< 0.01,69.1,60,73.8,66.5,76.2,72.9,65.5,55.9,66.9,75.5,84.9,39.1,50.6,44.7,42,"viability, T/C [36]: 61.6%; viability, T/C [37]: 70.4%; viability, T/C [16]: 65.4%; viability, T/C [38]: 91.1%; viability, T/C [20]: 84.5%; viability, T/C [21]: 84.3%; viability, T/C [22]: 93.8%; viability, T/C [39]: 47.4%; viability, T/C [26]: 40.5%; viability, T/C [27]: 44.1%; viability, T/C [28]: 40.9%; viability, T/C [40]: 41.6%; viability, T/C [32]: 34.7%; viability, T/C [33]: 42.6%; viability, T/C [34]: 35%"
CC1OCC2(CCN(c3cnc(Sc4ccnc(N)c4Cl)c(N)n3)CC2)C1N (centres undefined),–,–,–,–,–,–,–,–,–,–,–,–,–,–,–,–,–,–,–,–,"viability, T/C (compound 0.0316 µM): 83.3% and 88.2% and 102%; IC50 (compound alone, run of 07/19/2021): > 10 µM; IC50 (compound alone, run of 07/26/2021): > 10 µM; IC50 (curve of compound): > 10 µM"
CC(C)n1nc(-c2ccc3oc(N)nc3c2)c2c(N)ncnc21 + CNCc1ccccc1-c1csc(C(C)Nc2nc(C)nc3cc(OC)c(OC)cc23)c1,0.0428,0.0901,0.00683,< 0.000316,< 0.000316,53.2,44.4,–,–,–,45,54.5,–,–,43.2,51.6,1.9,0.88,0.21,0.37,"viability, T/C (second compound 0.1 µM, first compound 0.000316 µM): 88.7%; viability, T/C (second compound 0.1 µM, first compound 0.001 µM): 76.2%; viability, T/C (second compound 0.1 µM, first compound 0.00316 µM): 66.1%; viability, T/C [36]: 59.5%; viability, T/C (second compound 0.316 µM, first compound 0.000316 µM): 82.3%; viability, T/C (second compound 0.316 µM, first compound 0.001 µM): 70.7%; viability, T/C (second compound 0.316 µM, first compound 0.00316 µM): 66.2%; viability, T/C [37]: 55.5%; viability, T/C (second compound 1 µM, first compound 0.000316 µM): 57.9%; viability, T/C (second compound 1 µM, first compound 0.001 µM): 63.7%; viability, T/C (second compound 1 µM, first compound 0.00316 µM): 60.5%; viability, T/C [38]: 39.6%; viability, T/C (second compound 3.16 µM, first compound 0.000316 µM): 0.56%; viability, T/C (second compound 3.16 µM, first compound 0.001 µM): 0.43%; viability, T/C (second compound 3.16 µM, first compound 0.00316 µM): 0.72%; viability, T/C [39]: 0.43%; viability, T/C (second compound 10 µM, first compound 0.000316 µM): 0.94%; viability, T/C (second compound 10 µM, first compound 0.001 µM): 0.17%; viability, T/C (second compound 10 µM, first compound 0.00316 µM): 1.02%; viability, T/C [40]: 0.26%"
